ChEMBL document CHEMBL1833803, “Discovery of 1-amino-5H-pyrido[4,3-b]indol-4-carboxamide inhibitors of Janus kinase 2 (JAK2) for the treatment of myeloproliferative disorders” (J Med Chem, 2011)
pIC50: −log10 of the molar value. In brackets after ≈: the same amount, converted by molar mass. Values belong to the compound of their own block, whether it stands above or below them.

Tests used:
[1] = biological target: T1, Tyrosine-protein kinase JAK2 (Homo sapiens, UniProt O60674); test: Inhibition of JAK2
[2] = biological target: T2, Tyrosine-protein kinase JAK3 (Homo sapiens, UniProt P52333); test: Inhibition of JAK3
T2 sequence (P52333 whole entry): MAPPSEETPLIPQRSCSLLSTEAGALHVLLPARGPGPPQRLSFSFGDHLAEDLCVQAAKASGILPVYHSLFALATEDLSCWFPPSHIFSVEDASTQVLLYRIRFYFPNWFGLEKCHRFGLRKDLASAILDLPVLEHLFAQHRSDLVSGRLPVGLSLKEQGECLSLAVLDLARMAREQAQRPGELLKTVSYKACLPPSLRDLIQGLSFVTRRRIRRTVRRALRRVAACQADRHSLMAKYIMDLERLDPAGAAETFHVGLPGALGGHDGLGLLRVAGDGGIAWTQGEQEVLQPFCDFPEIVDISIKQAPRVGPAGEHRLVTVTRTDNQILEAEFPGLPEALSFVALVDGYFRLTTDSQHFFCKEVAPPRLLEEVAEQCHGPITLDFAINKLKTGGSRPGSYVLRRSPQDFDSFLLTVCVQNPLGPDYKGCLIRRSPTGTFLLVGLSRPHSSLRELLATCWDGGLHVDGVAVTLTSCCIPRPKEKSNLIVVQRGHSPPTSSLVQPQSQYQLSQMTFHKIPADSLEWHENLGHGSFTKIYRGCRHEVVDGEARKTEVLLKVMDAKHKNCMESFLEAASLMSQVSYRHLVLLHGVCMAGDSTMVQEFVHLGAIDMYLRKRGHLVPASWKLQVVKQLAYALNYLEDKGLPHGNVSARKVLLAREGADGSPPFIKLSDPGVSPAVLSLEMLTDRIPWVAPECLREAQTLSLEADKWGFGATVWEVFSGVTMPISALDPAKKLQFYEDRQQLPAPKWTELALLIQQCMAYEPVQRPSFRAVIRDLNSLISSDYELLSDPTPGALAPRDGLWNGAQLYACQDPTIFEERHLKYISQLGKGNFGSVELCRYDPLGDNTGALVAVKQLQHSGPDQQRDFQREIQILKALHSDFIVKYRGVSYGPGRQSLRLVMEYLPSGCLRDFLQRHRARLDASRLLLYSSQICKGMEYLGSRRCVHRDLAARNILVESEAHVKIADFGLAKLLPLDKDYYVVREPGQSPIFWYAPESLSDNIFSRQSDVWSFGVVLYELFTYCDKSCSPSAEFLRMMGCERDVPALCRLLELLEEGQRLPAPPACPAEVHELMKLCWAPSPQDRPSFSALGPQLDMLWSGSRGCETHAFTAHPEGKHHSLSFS

[3] = Selectivity ratio of IC50 for JAK3 to IC50 for JAK2
[4] = Plasma clearance in rat at 1 mg/kg, iv and 2 mg/kg, po; format: ADME, organism-based
[5] = Lipophilicity, log D of the compound at pH 7.4; format: physicochemical; details: buffer
[6] = Oral bioavailability in rat at 2 mg/kg; format: ADME, organism-based; details: in vivo
[7] = biological target: T1, Tyrosine-protein kinase JAK2; test: Competitive inhibition of JAK2 in the presence of 15 uM ATP
[8] = biological target: T1, Tyrosine-protein kinase JAK2; test: Competitive inhibition of JAK2 in the presence of 2 mM ATP
[9] = Aqueous solubility of the compound; format: physicochemical; details: buffer
[10] = biological target: T1, Tyrosine-protein kinase JAK2; test: Inhibition of JAK2 using biotin-EQEDEPEGDYFEWLE- NH2 as substrate
[11] = biological target: Tyrosine-protein kinase JAK1 (Homo sapiens, UniProt P23458); test: Inhibition of JAK1
[12] = biological target: Non-receptor tyrosine-protein kinase TYK2 (Homo sapiens, UniProt P29597); test: Inhibition of TYK2
[13] = Plasma clearance in rat at 2 mg/kg, iv and 4 mg/kg, po; format: ADME, organism-based
[14] = Oral bioavailability in rat at 4 mg/kg; format: ADME, organism-based; details: in vivo
[15] = biological target: T3, Tyrosine-protein kinase JAK2 (Homo sapiens, UniProt O60674, V617F); test: Inhibition of JAK2 V617F mutant
[16] = biological target: T3, Tyrosine-protein kinase JAK2; test: Inhibition of JAK2 V617F mutant-mediated STAT5 phosphorylation in mouse BAF3 cells; format: cell-based
[17] = biological target: CYP3A4 (Homo sapiens, UniProt P08684); test: Inhibition of CYP3A4 at 10 uM; format: ADME
[18] = Half life in rat at 1 mg/kg, iv; format: ADME, organism-based; design: dose 1 mg/kg, route intravenous; details: in vivo
[19] = biological target: T1, Tyrosine-protein kinase JAK2; test: Inhibition of JAK2-mediated STAT5 phosphorylation in human HEL 92.1.7 irf1-bla cells; format: cell-based
[20] = Clearance in rat at 1 mg/kg, iv; format: ADME, organism-based; design: dose 1 mg/kg, route intravenous; details: in vivo
[21] = biological target: CYP2C9 (Homo sapiens, UniProt P11712); test: Inhibition of CYP2C9 at 10 uM; format: ADME
[22] = biological target: Potassium voltage-gated channel subfamily E member 1 (Homo sapiens, UniProt P15382); test: Inhibition of Iks channel
[23] = biological target: Voltage-dependent L-type calcium channel subunit alpha-1C (Rattus norvegicus, UniProt P22002); test: Inhibition of rat CaV1.2
[24] = biological target: Sodium channel protein type 5 subunit alpha (Homo sapiens, UniProt Q14524); test: Inhibition of NaV1.5
[25] = biological target: Cytochrome P450 3A4 (Homo sapiens, UniProt P08684); test: Inhibition of CYP3A4; format: ADME
[26] = biological target: Cytochrome P450 2C9 (Homo sapiens, UniProt P11712); test: Inhibition of CYP2C9; format: ADME
[27] = biological target: Cytochrome P450 2D6 (Homo sapiens, UniProt P10635); test: Inhibition of CYP2D6; format: ADME
[28] = tested on: Rattus norvegicus; test: Dose normalized AUC in rat at 1 mg/kg, iv; format: ADME, organism-based; design: dose 1 mg/kg, route intravenous; details: in vivo
[29] = Plasma clearance in rat at 1 mg/kg, iv; format: ADME, organism-based; design: dose 1 mg/kg, route intravenous
[30] = Volume of distribution at steady state in rat at 1 mg/kg, iv; format: ADME, organism-based; design: dose 1 mg/kg, route intravenous; details: in vivo, read-out: Vdss
[31] = tested on: Canis familiaris; test: Dose normalized AUC in dog at 0.5 mg/kg, iv; format: ADME, organism-based, Canis lupus familiaris; design: dose 0.5 mg/kg, route intravenous; details: in vivo
[32] = Plasma clearance in dog at 0.5 mg/kg, iv; format: ADME, organism-based, Canis lupus familiaris; design: dose 0.5 mg/kg, route intravenous
[33] = Volume of distribution at steady state in dog at 0.5 mg/kg, iv; format: ADME, organism-based, Canis lupus familiaris; design: dose 0.5 mg/kg, route intravenous; details: in vivo, read-out: Vdss
[34] = Half life in dog at 0.5 mg/kg, iv; format: ADME, organism-based, Canis lupus familiaris; design: dose 0.5 mg/kg, route intravenous; details: in vivo
[35] = tested on: Rhesus monkey; test: Dose normalized AUC in monkey at 0.5 mg/kg, iv; format: ADME, organism-based, Macaca mulatta; design: dose 0.5 mg/kg, route intravenous; details: in vivo
[36] = Plasma clearance in monkey at 0.5 mg/kg, iv; format: ADME, organism-based, Macaca mulatta; design: dose 0.5 mg/kg, route intravenous; details: rhesus monkey
[37] = Volume of distribution at steady state in monkey at 0.5 mg/kg, iv; format: ADME, organism-based, Macaca mulatta; design: dose 0.5 mg/kg, route intravenous; details: rhesus monkey, in vivo, read-out: Vdss
[38] = Half life in monkey at 0.5 mg/kg, iv; format: ADME, organism-based, Macaca mulatta; design: dose 0.5 mg/kg, route intravenous; details: rhesus monkey, in vivo
[39] = tested on: Rattus norvegicus; test: Dose normalized AUC in rat at 2 mg/kg, po; format: ADME, organism-based; design: dose 2 mg/kg, route oral; details: in vivo
[40] = Cmax in rat at 2 mg/kg, po; format: ADME, organism-based; design: dose 2 mg/kg, route oral; details: in vivo
[41] = Tmax in rat at 2 mg/kg, po; format: ADME, organism-based; design: dose 2 mg/kg, route oral; details: in vivo
[42] = tested on: Canis familiaris; test: Dose normalized AUC in dog at 1 mg/kg, po; format: ADME, organism-based, Canis lupus familiaris; design: dose 1 mg/kg, route oral; details: in vivo
[43] = Cmax in dog at 1 mg/kg, po; format: ADME, organism-based, Canis lupus familiaris; design: dose 1 mg/kg, route oral; details: in vivo
[44] = Tmax in dog at 1 mg/kg, po; format: ADME, organism-based, Canis lupus familiaris; design: dose 1 mg/kg, route oral; details: in vivo
[45] = Oral bioavailability in dog at 1 mg/kg; format: ADME, organism-based, Canis lupus familiaris; details: in vivo
[46] = tested on: Rhesus monkey; test: Dose normalized AUC in monkey at 1 mg/kg, po; format: ADME, organism-based, Macaca mulatta; design: dose 1 mg/kg, route oral; details: in vivo
[47] = Cmax in monkey at 1 mg/kg, po; format: ADME, organism-based, Macaca mulatta; design: dose 1 mg/kg, route oral; details: rhesus monkey, in vivo
[48] = Tmax in monkey at 1 mg/kg, po; format: ADME, organism-based, Macaca mulatta; design: dose 1 mg/kg, route oral; details: rhesus monkey, in vivo
[49] = Oral bioavailability in monkey at 1 mg/kg; format: ADME, organism-based, Macaca mulatta; details: rhesus monkey, in vivo
[50] = tested on: Mus musculus; test: Reduction in pSTAT5 concentration in po dosed darbepoetin-stimulated C57B1/6 mouse
[51] = species on record: Mus musculus; test: Prevention of darbepoetin-induced elevation of hematocrit in C57/BL6 mouse PV model; format: functional, organism-based; details: C57Bl/6
[52] = species on record: Mus musculus; test: Prevention of darbepoetin-induced increase in spleen weight in C57/BL6 mouse PV model; format: functional, organism-based; details: C57Bl/6

T1 sequence (O60674 whole entry): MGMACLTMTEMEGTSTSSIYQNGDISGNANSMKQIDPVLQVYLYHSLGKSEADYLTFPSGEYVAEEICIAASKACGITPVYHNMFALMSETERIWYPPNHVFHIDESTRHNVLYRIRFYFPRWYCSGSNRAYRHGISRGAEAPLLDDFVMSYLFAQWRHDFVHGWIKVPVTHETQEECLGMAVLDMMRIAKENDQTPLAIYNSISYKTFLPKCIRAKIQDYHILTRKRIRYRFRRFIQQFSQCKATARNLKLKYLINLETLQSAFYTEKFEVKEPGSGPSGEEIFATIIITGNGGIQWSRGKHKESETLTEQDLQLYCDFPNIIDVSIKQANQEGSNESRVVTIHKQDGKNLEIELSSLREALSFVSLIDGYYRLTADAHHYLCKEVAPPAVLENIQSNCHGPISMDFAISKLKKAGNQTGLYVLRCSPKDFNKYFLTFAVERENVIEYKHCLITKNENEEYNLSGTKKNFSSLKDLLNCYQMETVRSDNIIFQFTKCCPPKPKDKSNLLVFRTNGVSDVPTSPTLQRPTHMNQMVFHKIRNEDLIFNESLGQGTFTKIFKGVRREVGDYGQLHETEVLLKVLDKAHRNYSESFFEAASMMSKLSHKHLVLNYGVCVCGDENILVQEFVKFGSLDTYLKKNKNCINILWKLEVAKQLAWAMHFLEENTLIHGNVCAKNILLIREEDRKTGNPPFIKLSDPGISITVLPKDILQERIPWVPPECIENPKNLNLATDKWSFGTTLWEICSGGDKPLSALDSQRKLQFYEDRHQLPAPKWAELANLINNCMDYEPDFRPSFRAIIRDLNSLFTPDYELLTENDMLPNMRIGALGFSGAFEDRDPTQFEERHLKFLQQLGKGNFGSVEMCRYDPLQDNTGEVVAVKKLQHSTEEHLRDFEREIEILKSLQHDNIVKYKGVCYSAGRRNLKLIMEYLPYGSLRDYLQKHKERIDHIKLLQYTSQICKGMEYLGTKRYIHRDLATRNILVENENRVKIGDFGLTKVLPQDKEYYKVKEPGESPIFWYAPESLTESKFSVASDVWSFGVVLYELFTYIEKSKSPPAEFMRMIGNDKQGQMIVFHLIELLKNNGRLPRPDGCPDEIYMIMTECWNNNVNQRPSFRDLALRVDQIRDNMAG
T3 sequence (O60674 whole entry V617F): as the sequence (O60674 whole entry) above, with V617F counted along it
Sequence of Sodium channel protein type 5 subunit alpha (Q14524 whole entry): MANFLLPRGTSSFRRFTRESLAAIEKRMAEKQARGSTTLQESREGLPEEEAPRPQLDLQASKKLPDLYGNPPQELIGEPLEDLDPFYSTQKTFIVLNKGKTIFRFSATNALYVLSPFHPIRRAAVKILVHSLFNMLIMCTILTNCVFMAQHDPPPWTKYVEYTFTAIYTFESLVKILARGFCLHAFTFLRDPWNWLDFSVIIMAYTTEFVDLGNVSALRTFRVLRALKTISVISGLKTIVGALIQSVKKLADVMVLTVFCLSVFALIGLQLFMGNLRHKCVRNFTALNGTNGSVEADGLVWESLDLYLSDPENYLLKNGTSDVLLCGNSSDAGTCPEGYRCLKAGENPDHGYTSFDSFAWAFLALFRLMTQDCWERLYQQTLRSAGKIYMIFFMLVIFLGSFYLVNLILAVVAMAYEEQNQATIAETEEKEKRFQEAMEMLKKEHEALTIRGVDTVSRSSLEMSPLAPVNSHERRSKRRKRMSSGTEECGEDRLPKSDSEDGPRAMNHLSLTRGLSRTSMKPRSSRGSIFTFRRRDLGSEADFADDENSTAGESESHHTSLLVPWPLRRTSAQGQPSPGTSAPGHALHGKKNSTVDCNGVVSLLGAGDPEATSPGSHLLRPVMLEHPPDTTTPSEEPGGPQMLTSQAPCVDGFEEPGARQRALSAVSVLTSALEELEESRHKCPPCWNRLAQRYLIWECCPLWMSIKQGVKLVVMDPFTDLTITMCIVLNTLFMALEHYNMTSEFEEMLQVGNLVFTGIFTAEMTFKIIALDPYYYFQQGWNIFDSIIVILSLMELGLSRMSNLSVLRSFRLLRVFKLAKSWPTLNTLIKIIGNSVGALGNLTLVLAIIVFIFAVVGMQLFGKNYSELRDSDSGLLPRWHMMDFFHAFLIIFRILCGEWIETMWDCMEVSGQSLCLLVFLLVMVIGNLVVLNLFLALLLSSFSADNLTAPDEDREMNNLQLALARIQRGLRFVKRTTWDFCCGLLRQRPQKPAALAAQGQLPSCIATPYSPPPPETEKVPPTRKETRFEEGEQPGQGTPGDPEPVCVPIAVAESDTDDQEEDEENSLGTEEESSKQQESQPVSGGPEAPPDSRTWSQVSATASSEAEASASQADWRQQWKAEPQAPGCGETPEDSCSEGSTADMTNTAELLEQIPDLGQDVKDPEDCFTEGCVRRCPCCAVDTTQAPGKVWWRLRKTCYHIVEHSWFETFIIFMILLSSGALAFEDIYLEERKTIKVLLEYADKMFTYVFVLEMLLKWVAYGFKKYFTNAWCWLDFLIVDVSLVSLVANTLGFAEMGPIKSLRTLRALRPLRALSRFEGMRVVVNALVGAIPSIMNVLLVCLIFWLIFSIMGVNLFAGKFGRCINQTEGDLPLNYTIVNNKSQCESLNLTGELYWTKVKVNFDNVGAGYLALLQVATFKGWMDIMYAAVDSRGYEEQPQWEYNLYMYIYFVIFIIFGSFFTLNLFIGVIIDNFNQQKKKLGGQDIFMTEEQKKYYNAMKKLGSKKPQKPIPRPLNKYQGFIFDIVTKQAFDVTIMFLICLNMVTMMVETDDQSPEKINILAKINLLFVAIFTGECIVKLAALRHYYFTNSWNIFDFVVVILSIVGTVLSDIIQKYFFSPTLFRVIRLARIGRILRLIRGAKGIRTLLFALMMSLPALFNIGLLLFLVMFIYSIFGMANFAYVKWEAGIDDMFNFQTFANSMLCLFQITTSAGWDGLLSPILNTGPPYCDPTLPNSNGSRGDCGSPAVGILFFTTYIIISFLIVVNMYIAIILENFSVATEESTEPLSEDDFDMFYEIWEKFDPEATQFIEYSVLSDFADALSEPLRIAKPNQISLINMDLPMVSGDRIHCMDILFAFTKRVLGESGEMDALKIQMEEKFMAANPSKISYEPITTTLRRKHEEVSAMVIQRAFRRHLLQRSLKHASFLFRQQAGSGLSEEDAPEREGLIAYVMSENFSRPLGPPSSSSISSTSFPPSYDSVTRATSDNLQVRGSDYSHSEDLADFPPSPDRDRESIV
Sequence of CYP2C9 (P11712 whole entry): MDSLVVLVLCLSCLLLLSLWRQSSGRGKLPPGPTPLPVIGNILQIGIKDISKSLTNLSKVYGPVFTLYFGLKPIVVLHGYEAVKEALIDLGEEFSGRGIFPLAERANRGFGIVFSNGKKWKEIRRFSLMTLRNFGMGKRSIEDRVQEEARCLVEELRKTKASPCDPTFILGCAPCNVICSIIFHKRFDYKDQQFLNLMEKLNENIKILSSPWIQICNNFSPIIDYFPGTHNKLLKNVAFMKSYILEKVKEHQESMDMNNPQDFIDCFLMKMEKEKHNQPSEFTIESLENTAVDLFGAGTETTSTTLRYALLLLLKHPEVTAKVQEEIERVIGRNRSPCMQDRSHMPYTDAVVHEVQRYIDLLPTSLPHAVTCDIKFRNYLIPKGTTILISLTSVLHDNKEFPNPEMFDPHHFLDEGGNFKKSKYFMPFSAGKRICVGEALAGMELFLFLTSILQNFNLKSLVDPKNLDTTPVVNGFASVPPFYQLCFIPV
Sequence of Cytochrome P450 2C9 (P11712 whole entry): as above
Sequence of Cytochrome P450 2D6 (P10635 whole entry): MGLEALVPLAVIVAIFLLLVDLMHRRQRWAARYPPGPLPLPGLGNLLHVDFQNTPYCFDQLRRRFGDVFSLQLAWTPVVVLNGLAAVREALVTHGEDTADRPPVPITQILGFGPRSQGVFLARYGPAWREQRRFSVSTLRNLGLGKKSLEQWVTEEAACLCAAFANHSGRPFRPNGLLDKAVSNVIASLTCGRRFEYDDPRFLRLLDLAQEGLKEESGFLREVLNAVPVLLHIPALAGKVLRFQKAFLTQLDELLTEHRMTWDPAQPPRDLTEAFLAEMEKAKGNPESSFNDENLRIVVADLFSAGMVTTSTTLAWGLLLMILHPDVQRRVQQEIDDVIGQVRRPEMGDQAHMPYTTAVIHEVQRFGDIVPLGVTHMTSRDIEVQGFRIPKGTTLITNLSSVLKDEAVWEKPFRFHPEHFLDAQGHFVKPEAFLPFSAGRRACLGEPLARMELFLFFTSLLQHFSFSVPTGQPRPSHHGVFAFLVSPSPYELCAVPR

- pIC50 [1]: 5.96
- pIC50 [2]: 6.14
- Ratio IC50 [3]: 0.7
- clearance [4]: 13 mL/min/kg
- logD [5]: 4.3
- bioavailability [6]: 89%
SMILES: O=c1[nH]ccc2c1c1cc(F)ccc1n2-c1ccccc1

- pIC50 [1]: 6.64
- pIC50 [2]: 5.17
- Ratio IC50 [3]: 30
- pIC50 [7]: 6.64
- pIC50 [8]: < 4.82
- logD [5]: 2
- solubility [9]: 6 µM (≈ 1.63 µg/mL)
- bioavailability [6]: 87%
- pIC50 [10]: 6.64
SMILES: CCNc1ncc(C(N)=O)c2[nH]c3ccc(F)cc3c12

- pIC50 [11]: 8.70
- pIC50 [12]: 8.15
- pIC50 [1]: 8.52
- pIC50 [2]: 7.11
- Ratio IC50 [3]: 26
- clearance [13]: 5.4 mL/min/kg
- bioavailability [14]: 100%
- logD [5]: 3.6
- solubility [9]: < 2 µM
SMILES: O=c1[nH]ccc2c3[nH]c(-c4ccccc4Cl)nc3c3ccc(F)cc3c12

- pIC50 [15]: 9.40
- pIC50 [16]: 7.96
- inhibition at 10 µM [17]: 30%
- half-life [18]: 4.5 h
- pIC50 [19]: 7.60
- clearance [20]: 7 mL/min/kg
- inhibition at 10 µM [21]: 34%
- pIC50 [22]: < 5.00
- pIC50 [25]: < 4.12
- pIC50 [26]: < 4.12
- pIC50 [27]: < 4.12
- AUC/dose [28]: 5.3 µM·h/mg/kg
- clearance [29]: 7.4 mL/min/kg
- Vd [30]: 2.5 L/kg
- AUC/dose [31]: 2.4 µM·h/mg/kg
- clearance [32]: 18 mL/min/kg
- Vd [33]: 6.1 L/kg
- half-life [34]: 5.2 h
- AUC/dose [35]: 5.2 µM·h/mg/kg
- clearance [36]: 7.4 mL/min/kg
- Vd [37]: 4.7 L/kg
- half-life [38]: 7.3 h
- AUC/dose [39]: 3.4 µM·h/mg/kg
- Cmax [40]: 600 nM
- Tmax [41]: 6 h
- bioavailability [6]: 67%
- AUC/dose [42]: 2.5 µM·h/mg/kg
- Cmax [43]: 300 nM
- Tmax [44]: 5.1 h
- bioavailability [45]: 120%
- AUC/dose [46]: 3.4 µM·h/mg/kg
- Cmax [47]: 200 nM
- Tmax [48]: 6 h
- bioavailability [49]: 66%
- pIC50 [50]: 5.92
- pIC50 [10]: 9.10
SMILES: NC(=O)c1cnc(N[C@H](C2CC2)C(F)(F)F)c2c1[nH]c1cc(-c3cnc(N)nc3)ccc12
- pIC50 [23]: < 4.52
- pIC50 [24]: < 4.52
- Activity [51]: Dose-dependent effect
- Activity [52]: Dose-dependent effect
